In patent US10702518B2, “TAF1 inhibitors for the therapy of cancer” (CeMM—Forschungszentrum für Molekulare Medizin GmbH, priority 2016, dated 2020):

Biological target: T1, TAF1(BD2) (Homo sapiens, UniProt P21675)
T1 construct: the second bromodomain of TAF1 (TAF1 (2)); purchased DiscoverX Corporation (contract assay); host or cells: T7 phage in E. coli host derived from BL21
T1 sequence (P21675 1519-1628 limits assumed): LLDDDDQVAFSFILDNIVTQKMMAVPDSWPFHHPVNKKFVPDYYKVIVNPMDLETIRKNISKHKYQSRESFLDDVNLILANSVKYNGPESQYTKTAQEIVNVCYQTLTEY
Assay: BROMOscan primary screen, binding to TAF1(BD2)
Settings: 1 μM compound; DMSO = 0%, 30 μM BI2536 = 100% inhibition
Method: The binding of these compounds to TAF1 was tested by DiscoverX Corporation (Fremont, Calif., USA) in a primary screen using the BROMOscan assay, which is a ligand binding site-directed competition assay that allows to quantitatively measure interactions between test compounds and bromodomains (see Fabian et al., 2005 for an explanation of the principle of this assay), according to the following protocol:
Bromodomain assays: T7 phage strains displaying bromodomains were grown in parallel in 24-well blocks in an E. coli host derived from the BL21 strain. E. coli were grown to log-phase and infected with T7 phage from a frozen stock (multiplicity of infection=0.4) and incubated with shaking at 32° C. until lysis (90-150 minutes). The lysates were centrifuged (5,000×g) and filtered (0.2 μm) to remove cell debris. Streptavidin-coated magnetic beads were treated with biotinylated small molecule or acetylated peptide ligands for 30 minutes at room temperature to generate affinity resins for bromodomain assays. The liganded beads were blocked with excess biotin and washed with blocking buffer (SeaBlock (Pierce), 1% BSA, 0.05% Tween 20, 1 mM DTT) to remove unbound ligand and to reduce non-specific phage binding. […] Test compounds were prepared as 1000× stocks in 100% DMSO and subsequently diluted 1:25 in monoethylene glycol (MEG). The compounds were then diluted directly into the assays such that the final concentrations of DMSO and MEG were 0.1% and 2.4%, respectively. All reactions were performed in polypropylene 384-well plates in a final volume of 0.02 ml. […] The bromodomain concentration in the eluates was measured by qPCR.

TAF1_BD2 (% inhibition at 1 μM) | Molecule
4% | Cn1c(=O)ccc2c(NC(=O)c3ccc4c(c3)CCCO4)cccc21 [Compound 4-25]

Same assay, conditions: read-out: TAF1_BD2 (% inhibition at 1 μM)

inhibition at 1 µM | Molecule
34% | COc1ccc(C(=O)Nc2cccc3c(=O)n(C)ccc23)cc1 [Compound 4-16]
3% | Cn1ccc(C(=O)Nc2ccc(OC(F)(F)F)cc2)cc1=O [Compound 4-13]
11% | Cn1ccc2c(NC(=O)c3ccc(OC(F)(F)F)cc3)cccc2c1=O [Compound 4-17]
11% | COc1cc(OC)cc(C(=O)NC2CCCc3c2ccc(=O)n3C)c1 (stereo not shown) [Compound 4-33]
3% | Cn1ccc(C(=O)Nc2ccc3c(c2)OCCO3)cc1=O [Compound 4-10]
34% | COc1ccc(C(=O)NC2CCCc3c2ccc(=O)n3C)cc1 (stereo not shown) [Compound 4-31]
9% | COc1ccc(NC(=O)c2cc(=O)n(C)c3ccccc23)cc1 [Compound 4-2]
32% | Cn1c2c(ccc1=O)C(NC(=O)c1ccc3c(c1)OCCO3)CCC2 (stereo not shown) [Compound 4-29]
48% | COc1cc(NC(=O)c2cc(=O)n(C)c3ccccc23)cc(OC)c1 [Compound 4-4]
58% | Cn1c(=O)ccc2c(C(=O)Nc3ccc4c(c3)OCCO4)cccc21 [Compound 4-24]
20% | COc1cc(NC(=O)c2ccn(C)c(=O)c2)cc(OC)c1 [Compound 4-14]
10% | Cn1c2c(ccc1=O)C(NC(=O)c1ccc(OC(F)(F)F)cc1)CCC2 (stereo not shown) [Compound 4-32]
20% | Cn1c(=O)cc(C(=O)Nc2ccc(OC(F)(F)F)cc2)c2ccccc21 [Compound 4-3]
50% | COc1cc(OC)cc(C(=O)Nc2cccc3c2ccc(=O)n3C)c1 [Compound 4-28]

Tested on: REDS3 cells
Assay: RFP reporter expression in REDS3 cells (live cell imaging)
Format: cell-based, human
Settings: 10 μM, 24 hours
Method: Cells were seeded on clear flat bottom 96-well or 384-well plates (Corning) and treated with the indicated compounds for the specified conditions. Live cell imaging pictures were taken with the Operetta High Content Screening System (PerkinElmer), 20× objective and non-confocal mode.
Only RFP-positive nuclei were detected and counted.
The increase of RFP fluorescence, detected with the Operetta High Content Screening System (PerkinElmer), 20× objective and non-confocal mode, was used as read-out.
Briefly, the screening was divided in three parts called respectively 1) primary screening, 2) follow up and 3) validation. During the primary screening REDS3 cells were treated with 10 μM of every compound, and live cell imaging pictures were taken in order to assess their ability to induce RFP expression 24 hours later.

Molecule | increase of RFP-positive cells compared to DMSO treated cells
COc1ccc(CCc2nc3cc(-c4c(C)noc4C)ccc3n2C[C@H](C)N2CCOCC2)cc1Cl [CBP30] | 1.5 fold

Same assay, conditions: library screen of 89,355 small molecules, 24 hours

Molecule | confirmed screening hit (RFP induction in REDS3 screen)
COc1cc2c(cc1-c1c(C)noc1C)ncc1[nH]c(=O)n([C@H](C)c3ccccn3)c12 [I-BET151] | part of this group
COc1ccccc1S(=O)(=O)Nc1ccc2c(c1)CN(C)C(=O)N2 [PFI1] | part of this group
COc1cc(OC)c2c(=O)[nH]c(-c3cc(C)c(OCCO)c(C)c3)nc2c1 [RVX208] | part of this group
Cc1sc2c(c1C)C(c1ccc(Cl)cc1)=N[C@@H](CC(=O)Nc1ccc(O)cc1)c1nnc(C)n1-2 [OXT015] | part of this group
Cc1cnc(Nc2ccc(OCCN3CCCC3)cc2)nc1Nc1cccc(S(=O)(=O)NC(C)(C)C)c1 [TG-101348] | part of this group
CC[C@@H]1C(=O)N(C)c2cnc(Nc3ccc(C(=O)NC4CCN(C)CC4)cc3OC)nc2N1C1CCCC1 [BI-2536] | part of this group

Same assay, conditions: single agent

Molecule | RFP expression in REDS3 cells
phytohemagglutinin [PHA] | No increase of RFP-positive nuclei was observed
CCCCCCCCCCCCCC(=O)O[C@@H]1[C@@H](C)[C@@]2(O)[C@@H](C=C(CO)C[C@]3(O)C(=O)C(C)=C[C@@H]23)[C@@H]2C(C)(C)[C@]12OC(C)=O [PMA, phorbol myristate acetate] | No increase of RFP-positive nuclei was observed
CCC(=O)N1CCOc2c(cc(-c3ccc(OC)c(OC)c3)cc2OC[C@H]2CCCN(C)C2)C1 [I-CBP112] | No RFP expression was detected
